Experimental data from patent US20070117770A1, “Human ribosomal DNA (rDNA) and ribosomal RNA (rRNA) nucleic acids and uses thereof” (Cylene Pharmaceuticals, Inc., priority 2005, published 2007).

How the values were obtained:
MKK4(m) = MKK4(m) (Mus musculus, UniProt P47809); assay: Protein kinase inhibition assay; format: biochemical; details: read-out: percent residual activity of MKK4(m)
Method: (§1) Certain compounds were tested for activity in protein kinase inhibition assays. All substrates were dissolved and diluted to working stocks in de-ionized water, apart from histone H1 (10× working stock in 20 mM MOPS pH 7.0), PDKtide (10× working stock in 50 mM Tris pH 7.0) ATF2 (which is typically stored at a 20× working stock in 50 mM Tris pH 7.5, 150 mM NaCl, 0.1 mM EGTA, 0.03% Brij-35, 50% glycerol, 1 mM benzamidine, 0.2 mM PMSF and 0.1% R-mercaptoethanol), KKLNRTLSFAEPG (SEQ ID NO:203) and RRRLSFAEPG (SEQ ID NO:204) (50 mM HEPES pH 7.4) and GGEEEEYFELVKKKK (SEQ ID NO:205) (20 mM MOPS pH 7.0). All kinases were pre-diluted to a 10× working concentration prior to addition into the assay. The composition of the dilution buffer for each kinase is detailed below.
The reaction is initiated by the addition of the MGATP. After incubation for 40 minutes at room temperature, 5 μl of this incubation mix is used to initiate a JNK1α1 (h) assay, which is exactly as described on page 11 of this book except that ATF2 is replaced with 250 μM peptide.

HCT116 cells = assay: Total (nucleolar) RNA synthesis (3H-uridine incorporation); format: cell-based; parameters: 3H-uridine incorporation, time course: unit of the concentration uncertain
Method: Effects of compound A-1 and compound B-1 on DNA synthesis, RNA synthesis and protein synthesis were determined in HCT116 cells. HCT116 cells were plated overnight at 100,000 cells per mL. Next day cells were treated with increasing amounts of either compound A-1 or compound B-1 followed by one hour incubation with BrdU label (from a BrdU Cell proliferation Assay Kit, Calbiochem) to monitor DNA synthesis; […] of ^3H-uridine to monitor total RNA synthesis; […] of ^3H-methionine to monitor protein synthesis or plain media to monitor RNA Polymerase II-dependent RNA synthesis. DNA synthesis was assessed using a BrdU-ELISA (BrdU Cell proliferation Assay Kit, Calbiochem). To measure total RNA synthesis, total RNA from treated cells was isolated with a RNease kit (QIAGEN), levels of total RNA were assessed with Ribogreen reagent (Invitrogen) and the newly synthesized tritiated RNA was measured in a scintillation Counter (Perkin Elmer). To measure effects on protein synthesis, cells were lysed in a RIPA buffer, and total protein was precipitated with 10% TCA on a glass-filters. Newly synthesized tritiated protein was measured in a scintillation Counter (Perkin Elmer). Effects of drugs on […] RNA synthesis were assessed by monitoring levels of a c-myc mRNA, which has a relatively short half-life of approximately 30 minutes, by Taqman qRT-PCR (ABI).

MRCKβ(h) = MRCKβ(h) (Homo sapiens, UniProt Q9Y5S2); assay: Protein kinase inhibition assay; format: biochemical; details: read-out: percent residual activity of MRCKβ(h)
Method: as §1
(§2) In a final reaction volume of 25 μl, MRCKβ (h) (5-10 mU) is incubated with 8 mM MOPS pH 7.0, 0.2 mM EDTA, 100 μM KKRNRTLTV (SEQ ID NO:219), 10 mM MgAcetate and [gamma-33P-ATP] (specific activity approx. 500 cpm/pmol, concentration as required). The reaction is initiated by the addition of the MgATP mix. After incubation for 40 minutes at room temperature, the reaction is stopped by the addition of 5 μl of a 3% phosphoric acid solution. 10 μl of the reaction is then spotted onto a P30 filtermat and washed three times for 5 minutes in 75 mM phosphoric acid and once in methanol prior to drying and scintillation counting.

PKCβI(h) = PKCβI(h) (Homo sapiens, UniProt P05771); assay: Protein kinase inhibition assay; format: biochemical; details: read-out: percent residual activity of PKCβI(h)
Method: as §1
In a final reaction volume of […], PKCβI (h) (5-10 mU) is incubated with 20 mM HEPES pH 7.4, 0.03% Triton X-100, 0.1 mM CaCl2, 0.1 mg/ml phosphatidylserine, 10 μg/ml diacylglycerol, 0.1 mg/ml histone H1, 10 mM MgAcetate and [gamma-33P-ATP] (specific activity approx. 500 cpm/pmol, concentration as required). The reaction is initiated by the addition of the MgATP mix. After incubation for 40 minutes at room temperature, the reaction is stopped by the addition of 5 μl of a 3% phosphoric acid solution. […]

FAK(h) = FAK(h) (Homo sapiens, UniProt Q05397); assay: Protein kinase inhibition assay; format: biochemical; details: read-out: percent residual activity of FAK(h)
Method: as §1

ARK5(h) = ARK5(h) (Homo sapiens, UniProt O60285); assay: Protein kinase inhibition assay; format: biochemical; details: read-out: percent residual activity of ARK5(h)
Method: as §1

EGFR(T790M, L858R)(h) = EGFR(T790M, L858R)(h) (Homo sapiens, UniProt P00533, L858R/T790M); assay: Protein kinase inhibition assay; format: biochemical; details: read-out: percent residual activity of EGFR(T790M, L858R)(h)
Method: as §1

SIK(h) = SIK(h) (Homo sapiens, UniProt P57059); assay: Protein kinase inhibition assay; format: biochemical; details: read-out: percent residual activity of SIK(h)
Method: as §1

PAK2(h) = PAK2(h) (Homo sapiens, UniProt Q13177); assay: Protein kinase inhibition assay; format: biochemical; details: read-out: percent residual activity of PAK2(h)
Method: as §1
as §2, with “PAK2” for “MRCKβ”, “30” for “100”, “KKRNRTLTV” left out, “NO:222),” for “NO:219),”

MKK6(h) = MKK6(h) (Homo sapiens, UniProt P52564); assay: Protein kinase inhibition assay; format: biochemical; details: read-out: percent residual activity of MKK6(h)
Method: as §1
The reaction is initiated by the addition of the MgATP. After incubation for 40 minutes at room temperature, 5 μl of this incubation mix is used to initiate a SAPK2a (h) assay, which is described on page 18 of this book.

SIK(h), sequence (P57059 whole entry): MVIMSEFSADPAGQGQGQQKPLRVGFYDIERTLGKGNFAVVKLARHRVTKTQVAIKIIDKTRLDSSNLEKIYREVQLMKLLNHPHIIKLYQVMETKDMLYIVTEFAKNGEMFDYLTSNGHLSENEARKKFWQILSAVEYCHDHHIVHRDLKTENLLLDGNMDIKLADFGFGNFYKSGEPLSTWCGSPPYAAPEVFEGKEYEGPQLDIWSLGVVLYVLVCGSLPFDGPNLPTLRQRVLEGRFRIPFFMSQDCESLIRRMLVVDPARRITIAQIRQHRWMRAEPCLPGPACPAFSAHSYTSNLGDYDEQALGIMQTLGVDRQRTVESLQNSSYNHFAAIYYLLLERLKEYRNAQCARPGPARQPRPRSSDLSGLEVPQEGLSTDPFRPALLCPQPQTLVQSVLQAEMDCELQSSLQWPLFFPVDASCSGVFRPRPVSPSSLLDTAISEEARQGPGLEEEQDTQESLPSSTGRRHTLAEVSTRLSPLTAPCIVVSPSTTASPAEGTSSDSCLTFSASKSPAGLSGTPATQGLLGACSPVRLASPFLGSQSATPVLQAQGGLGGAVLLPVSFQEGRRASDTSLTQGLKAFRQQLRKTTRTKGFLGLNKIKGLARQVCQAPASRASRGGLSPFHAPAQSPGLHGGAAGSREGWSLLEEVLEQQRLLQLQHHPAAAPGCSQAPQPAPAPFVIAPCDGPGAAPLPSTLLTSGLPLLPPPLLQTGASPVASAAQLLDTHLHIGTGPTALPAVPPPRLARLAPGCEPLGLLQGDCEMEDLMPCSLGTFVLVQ
FAK(h), sequence (Q05397 whole entry): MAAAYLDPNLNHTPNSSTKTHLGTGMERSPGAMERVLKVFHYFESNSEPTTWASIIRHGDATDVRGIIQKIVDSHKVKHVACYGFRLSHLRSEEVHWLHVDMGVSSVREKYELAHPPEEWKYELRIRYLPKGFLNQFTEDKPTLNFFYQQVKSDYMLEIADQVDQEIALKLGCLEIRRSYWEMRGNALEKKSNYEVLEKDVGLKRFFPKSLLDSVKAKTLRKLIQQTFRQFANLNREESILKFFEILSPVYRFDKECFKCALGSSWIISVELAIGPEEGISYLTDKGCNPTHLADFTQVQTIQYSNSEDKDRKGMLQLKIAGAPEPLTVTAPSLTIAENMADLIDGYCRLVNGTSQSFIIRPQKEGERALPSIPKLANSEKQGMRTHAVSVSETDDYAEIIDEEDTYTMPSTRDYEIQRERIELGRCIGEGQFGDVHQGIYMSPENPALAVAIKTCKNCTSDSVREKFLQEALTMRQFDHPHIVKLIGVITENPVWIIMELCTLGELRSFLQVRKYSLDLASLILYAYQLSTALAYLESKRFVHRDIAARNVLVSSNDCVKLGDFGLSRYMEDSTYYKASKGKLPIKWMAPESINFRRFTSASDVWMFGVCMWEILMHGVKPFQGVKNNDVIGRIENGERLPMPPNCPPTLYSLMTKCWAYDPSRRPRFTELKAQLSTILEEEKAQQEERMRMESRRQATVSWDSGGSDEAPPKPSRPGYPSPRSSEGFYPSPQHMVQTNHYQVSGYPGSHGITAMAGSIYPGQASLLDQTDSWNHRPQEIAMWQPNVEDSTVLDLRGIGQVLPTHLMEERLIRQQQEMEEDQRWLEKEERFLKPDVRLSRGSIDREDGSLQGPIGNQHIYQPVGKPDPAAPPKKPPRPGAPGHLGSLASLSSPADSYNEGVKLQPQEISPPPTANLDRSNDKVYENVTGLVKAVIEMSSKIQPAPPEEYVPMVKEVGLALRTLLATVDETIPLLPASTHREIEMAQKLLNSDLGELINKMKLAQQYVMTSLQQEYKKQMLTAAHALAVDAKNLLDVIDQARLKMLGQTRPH
EGFR(T790M, L858R)(h), sequence (P00533 25-1210 T790M/L858R): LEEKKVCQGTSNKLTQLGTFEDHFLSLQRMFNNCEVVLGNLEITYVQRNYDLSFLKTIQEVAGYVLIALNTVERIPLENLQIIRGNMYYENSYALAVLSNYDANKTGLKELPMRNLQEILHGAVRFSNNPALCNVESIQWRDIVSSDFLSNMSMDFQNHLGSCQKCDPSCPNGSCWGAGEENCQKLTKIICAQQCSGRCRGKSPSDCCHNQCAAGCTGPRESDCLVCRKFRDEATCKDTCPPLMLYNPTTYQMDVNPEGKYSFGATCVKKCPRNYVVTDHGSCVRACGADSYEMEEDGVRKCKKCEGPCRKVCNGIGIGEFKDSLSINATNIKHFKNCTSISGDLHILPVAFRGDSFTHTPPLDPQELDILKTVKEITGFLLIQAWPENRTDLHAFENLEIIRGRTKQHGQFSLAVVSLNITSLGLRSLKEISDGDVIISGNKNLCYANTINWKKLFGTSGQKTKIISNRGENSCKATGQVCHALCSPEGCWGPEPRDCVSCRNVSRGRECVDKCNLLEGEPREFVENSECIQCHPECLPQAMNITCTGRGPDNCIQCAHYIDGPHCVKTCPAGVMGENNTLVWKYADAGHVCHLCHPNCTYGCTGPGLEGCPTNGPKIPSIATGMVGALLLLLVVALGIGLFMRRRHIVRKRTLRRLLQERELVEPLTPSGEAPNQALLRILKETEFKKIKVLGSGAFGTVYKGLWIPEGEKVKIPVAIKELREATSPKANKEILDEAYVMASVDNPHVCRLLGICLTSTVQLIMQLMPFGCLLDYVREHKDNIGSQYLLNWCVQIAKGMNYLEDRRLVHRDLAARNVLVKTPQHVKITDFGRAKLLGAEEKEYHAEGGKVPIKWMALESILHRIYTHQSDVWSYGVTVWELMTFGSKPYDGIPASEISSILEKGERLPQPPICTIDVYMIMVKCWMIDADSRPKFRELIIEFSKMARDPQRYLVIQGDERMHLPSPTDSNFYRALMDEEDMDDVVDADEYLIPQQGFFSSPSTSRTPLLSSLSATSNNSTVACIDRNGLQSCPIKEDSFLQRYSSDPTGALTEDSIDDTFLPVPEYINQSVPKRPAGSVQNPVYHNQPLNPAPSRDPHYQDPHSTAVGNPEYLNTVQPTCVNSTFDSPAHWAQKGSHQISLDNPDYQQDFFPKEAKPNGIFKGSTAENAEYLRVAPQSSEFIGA
MRCKβ(h), sequence (Q9Y5S2 whole entry): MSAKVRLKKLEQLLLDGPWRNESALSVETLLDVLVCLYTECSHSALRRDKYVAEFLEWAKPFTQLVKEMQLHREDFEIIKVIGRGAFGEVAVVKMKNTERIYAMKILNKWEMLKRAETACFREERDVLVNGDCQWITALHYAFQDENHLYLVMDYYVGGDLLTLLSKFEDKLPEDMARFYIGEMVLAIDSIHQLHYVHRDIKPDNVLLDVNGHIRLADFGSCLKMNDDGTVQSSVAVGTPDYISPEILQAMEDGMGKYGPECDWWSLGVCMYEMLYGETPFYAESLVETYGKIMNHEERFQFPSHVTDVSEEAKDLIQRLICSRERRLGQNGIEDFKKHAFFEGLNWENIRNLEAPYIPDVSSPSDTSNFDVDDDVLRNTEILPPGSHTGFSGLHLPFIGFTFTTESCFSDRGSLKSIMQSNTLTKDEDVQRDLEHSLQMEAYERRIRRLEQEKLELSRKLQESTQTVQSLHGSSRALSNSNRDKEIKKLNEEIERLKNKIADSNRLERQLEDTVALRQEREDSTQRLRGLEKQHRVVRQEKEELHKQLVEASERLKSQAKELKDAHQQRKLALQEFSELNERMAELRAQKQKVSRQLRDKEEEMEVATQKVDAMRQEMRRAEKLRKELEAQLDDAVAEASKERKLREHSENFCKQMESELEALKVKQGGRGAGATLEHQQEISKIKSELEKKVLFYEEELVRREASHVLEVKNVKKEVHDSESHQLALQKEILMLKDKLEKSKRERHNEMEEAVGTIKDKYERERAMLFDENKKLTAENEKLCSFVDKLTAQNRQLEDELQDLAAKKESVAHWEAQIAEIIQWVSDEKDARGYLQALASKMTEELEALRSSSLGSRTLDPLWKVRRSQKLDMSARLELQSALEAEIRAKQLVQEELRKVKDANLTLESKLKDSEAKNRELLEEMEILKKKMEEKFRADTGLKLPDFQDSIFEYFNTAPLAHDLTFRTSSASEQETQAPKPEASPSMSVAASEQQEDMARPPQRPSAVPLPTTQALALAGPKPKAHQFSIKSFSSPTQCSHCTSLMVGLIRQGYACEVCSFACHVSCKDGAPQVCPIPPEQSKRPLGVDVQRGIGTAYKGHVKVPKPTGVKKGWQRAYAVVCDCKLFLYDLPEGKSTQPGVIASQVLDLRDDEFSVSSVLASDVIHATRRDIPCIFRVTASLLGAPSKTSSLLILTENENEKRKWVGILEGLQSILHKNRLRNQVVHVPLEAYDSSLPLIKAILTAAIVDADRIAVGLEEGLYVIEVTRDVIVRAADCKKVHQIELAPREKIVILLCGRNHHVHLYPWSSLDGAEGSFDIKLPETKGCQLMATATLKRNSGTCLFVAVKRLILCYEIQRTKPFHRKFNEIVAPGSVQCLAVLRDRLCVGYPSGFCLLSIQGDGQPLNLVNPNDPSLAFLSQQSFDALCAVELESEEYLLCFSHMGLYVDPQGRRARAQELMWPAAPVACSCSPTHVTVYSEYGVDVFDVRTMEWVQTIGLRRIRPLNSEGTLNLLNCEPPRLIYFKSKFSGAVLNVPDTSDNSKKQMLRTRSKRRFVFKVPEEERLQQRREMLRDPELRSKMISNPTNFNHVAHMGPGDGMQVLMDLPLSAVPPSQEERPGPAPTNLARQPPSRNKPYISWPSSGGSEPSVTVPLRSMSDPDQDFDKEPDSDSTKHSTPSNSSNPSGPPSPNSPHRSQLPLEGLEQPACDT
MKK4(m), sequence (P47809 whole entry): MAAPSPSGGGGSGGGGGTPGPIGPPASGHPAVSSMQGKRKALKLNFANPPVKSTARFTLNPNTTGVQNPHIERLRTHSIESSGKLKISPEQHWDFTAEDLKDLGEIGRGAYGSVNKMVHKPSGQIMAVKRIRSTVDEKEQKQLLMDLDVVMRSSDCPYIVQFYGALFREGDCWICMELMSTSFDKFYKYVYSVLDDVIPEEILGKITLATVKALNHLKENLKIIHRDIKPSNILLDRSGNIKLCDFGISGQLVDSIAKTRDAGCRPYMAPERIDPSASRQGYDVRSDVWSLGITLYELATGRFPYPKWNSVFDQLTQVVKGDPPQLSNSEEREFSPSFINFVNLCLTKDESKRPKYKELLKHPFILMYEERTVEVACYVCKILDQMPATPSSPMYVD

CN1CCCC1CCNC(=O)c1cn2c3c(c(N4CCC(c5cnccn5)C4)c(F)cc3c1=O)Oc1cc3ccccc3cc1-2 (stereo not shown) [Compound A-1]
remaining activity at 2.5 µM (MKK4(m)): 108% | concentration that significantly reduced nucleolar RNA synthesis (HCT116 cells): 1 µM | 3H-uridine incorporation, time course (HCT116 cells; 3 (unit uncertain) for 15 min): substantially inhibited | remaining activity at 2.5 µM (MRCKβ(h)): 84% | remaining activity at 2.5 µM (PKCβI(h)): 94% | remaining activity at 2.5 µM (FAK(h)): 94% | remaining activity at 2.5 µM (ARK5(h)): 79% | remaining activity at 2.5 µM (EGFR(T790M, L858R)(h)): 93% | remaining activity at 2.5 µM (SIK(h)): 79% | remaining activity at 2.5 µM (PAK2(h)): 73% | remaining activity at 2.5 µM (MKK6(h)): 100%

CC(=O)N1CCN(c2ccc3c(=O)c(C(=O)NCCN4CCCC4)c4n(C)c5ccccc5n4c3n2)CC1 [Compound B-1]
remaining activity at 2.5 µM (MKK4(m)): 99% | concentration that significantly reduced nucleolar RNA synthesis (HCT116 cells): 10 µM | 3H-uridine incorporation, time course (HCT116 cells; 10 (unit uncertain) for 30 min): substantially inhibited | remaining activity at 2.5 µM (MRCKβ(h)): 102% | remaining activity at 2.5 µM (PKCβI(h)): 97% | remaining activity at 2.5 µM (FAK(h)): 102% | remaining activity at 2.5 µM (ARK5(h)): 104% | remaining activity at 2.5 µM (EGFR(T790M, L858R)(h)): 99% | remaining activity at 2.5 µM (SIK(h)): 94% | remaining activity at 2.5 µM (PAK2(h)): 95% | remaining activity at 2.5 µM (MKK6(h)): 90%
